According to publication PMC6792352, “Limited Chemical Structural Diversity Found to Modulate Thyroid Hormone Receptor in the Tox21 Chemical Library” (Environmental Health Perspectives, 2019):
Structures can show the parent of a compound that is named as a salt.

Assay: in vitro
Settings: rat, gh3-tre-luc cells, AC50 (uM) modified / 1000

Row | Structure (SMILES) | CC50 at 24 h [µM]
1 | O=C(O)CCCCC1CCSS1 (stereo not drawn) [alpha-Lipoic acid] | > 90
2 | Cc1[nH]c(=O)c(C#N)cc1-c1ccncc1 [Milrinone] | > 90
3 | O=C(O)CN(CCOCCOCCN(CC(=O)O)CC(=O)O)CC(=O)O [Egtazic Acid] | > 50
4 | Fc1cccc(Cl)c1CCl [1-Chloro-2-(chloromethyl)-3-fluorobenzene] | > 90
5 | CNC(=O)ON=C(C)SC [Methomyl] | > 90
6 | c1ccc2c(c1)OCC(CN1CCCCC1)O2 (stereo not shown) [Piperoxan] | > 50
7 | C[C@H]1C[C@H]2[C@@H]3CCC4=CC(=O)C=C[C@]4(C)[C@@]3(Cl)[C@@H](O)C[C@]2(C)[C@@]1(O)C(=O)CO [Beclomethasone] | > 50
8 | CCCN(CCC)C(=O)C(CCC(=O)O)NC(=O)c1ccccc1 (stereo not shown) [Proglumide] | > 50
9 | CC/C(=C(/CC)c1ccc(OP(=O)(O)O)cc1)c1ccc(OP(=O)(O)O)cc1 [Diethylstilbestrol diphosphate] | > 50
10 | Cc1cc(O)cc2c1O[C@](C)(CCC[C@H](C)CCC[C@H](C)CCCC(C)C)CC2 [D-delta-Tocopherol] | > 50
11 | CCCC[C@H]1CN(CC2CCOCC2)C(=O)OC12CCN(C1(C)CCN(C(=O)c3c(C)ncnc3C)CC1)CC2 [PharmaGSID_48521] | > 80
12 | c1ccc2sc(SN(C3CCCCC3)C3CCCCC3)nc2c1 [N,N-Dicyclohexyl-2-benzothiazolesulfenamide] | > 100
13 | CC(=O)/C=C/C1=C(C)CCCC1(C)C [beta-Ionone] | > 90
14 | O=C1C=C2C=C[C@@H]3C[C@@]2(O1)[C@H]1CCCCN31 [Securinine] | 15.3
15 | CCOS(C)(=O)=O [Ethyl methanesulfonate] | > 90
16 | O=C(Cl)c1ccccc1F [2-Fluorobenzoyl chloride] | > 90
17 | CCN(CC)c1cccc(O)c1 [3-Diethylaminophenol] | > 90
18 | OC1CCCC1 [Cyclopentanol] | > 90
19 | CN1[C@@H]2CC[C@H]1C[C@@H](OC(=O)c1c[nH]c3ccccc13)C2 [Tropisetron] | 23.8
20 | C=C(C)C1CC=C(C)C(=O)C1 (racemic) [dl-Carvone] | > 90
21 | O=S1(=O)CC=CC1 [3-Sulfolene] | > 90

Row | Structure (SMILES) | CC50 at 24 h [µM]
22 | CC1=NN(c2ccc(S(=O)(=O)O)cc2)C(=O)C1N=Nc1ccccc1 (stereo not shown) [Acid Yellow 11] | 69.4
23 | Cc1cccc2ccccc12 [1-Methylnaphthalene] | > 90
24 | COc1cc(/C=C/c2ccccc2)oc(=O)c1 [Desmethoxyyangonin] | > 90
25 | Nc1nc(N)c(-c2ccccc2)s1 [Amiphenazole] | > 50
26 | CCOC(=O)NNc1ccc(N(CC)CC(C)O)nn1 (stereo not shown) [Cadralazine] | > 50
27 | CC(O)CNCC(C)O (stereo not shown) [Diisopropanolamine] | > 90
28 | CNC(=O)ON=C(C)C(C)S(C)(=O)=O (stereo not shown) [Butoxycarboxim] | > 900
29 | CC(=O)Oc1ccc(C)cc1 [4-Tolyl acetate] | > 90
30 | COCCOCCOC [Diethylene glycol dimethyl ether] | > 90
31 | CC(=O)OC(C)C[N+](C)(C)C (stereo not shown) [Methacholine chloride] | > 20
32 | CCN(CC)CCOC(=O)c1cccnc1 [Nicametate citrate] | > 50
33 | O=S(=O)(c1ccccc1)c1ccc(Cl)cc1 [4-Chlorophenyl phenyl sulfone] | > 90
34 | NCCNC(=O)c1ccc(Cl)cn1 [Lazabemide hydrochloride] | > 50
35 | CCN(CC)CC#CCOC(=O)C(O)(c1ccccc1)C1CCCCC1 (stereo not shown) [Oxybutynin chloride] | 15.3
36 | CCCCCCCCCCCCOC(C)=O [Dodecyl acetate] | > 90
37 | CCCCCCCC/C=C\CCCCCCCC(=O)OC [Methyl (9Z)-octadec-9-enoate] | > 90
38 | Cc1cnc2c(C(=O)O)c(Cl)ccc2c1 [Quinmerac] | > 90
39 | CC(C)CC(=O)CC(C)C [Diisobutyl ketone] | > 90
40 | CC(C)c1ccc2oc3nc(N)c(C(=O)O)cc3c(=O)c2c1 [Amlenanox] | > 50
41 | O=C1c2ccccc2CN2C(=O)c3ccccc3CN12 [Diftalone] | > 50
42 | C[C@H](Cc1ccc(OCC(=O)O)cc1)NC[C@H](O)c1csc(C(F)(F)F)n1 [CP-114271] | > 90

Row | Structure (SMILES) | CC50 at 24 h [µM]
43 | OC1OC[C@@H](O)[C@H](O)[C@H]1O (stereo partly drawn) [D-Xylose] | > 90
44 | O=CN1CCOCC1 [4-Morpholinecarboxaldehyde] | > 90
45 | O=C1CC(=O)NC(=O)N1 [Barbituric acid] | > 90
46 | CO[Si](C)(OC)c1ccccc1 [Dimethoxy(methyl)phenylsilane] | > 90
47 | Clc1cc(Cl)nc(Cl)n1 [2,4,6-Trichloropyrimidine] | > 90
48 | CCCCCC[C@@H](CCC)C(=O)O [(2R)-2-Propyloctanoic acid] | > 50
49 | O=C1CCCCC1C1CCCCC1 (stereo not shown) [1,1'-Bi(cyclohexyl)-2-one] | > 90
50 | CCCCCCCCCCCCCCCCCC[N+](C)(C)Cc1ccccc1 [N,N-Dimethyl-N-benzyl-N-octadecylammonium chloride] | 11.4
51 | Nc1cc(Cl)c(-c2cc(Cl)c(N)cc2Cl)cc1Cl [2,2',5,5'-Tetrachlorobenzidine] | 13.7
52 | Cc1onc(-c2c(Cl)cccc2Cl)c1C(=O)N[C@@H]1C(=O)N2[C@@H]1SC(C)(C)[C@@H]2C(=O)O [Dicloxacillin sodium salt monohydrate] | > 50
53 | O=C1NCN(c2ccccc2)C12CCN(CC1COc3ccccc3O1)CC2 (stereo not shown) [Spiroxatrine] | 36.3
54 | CCN(CCO)c1cccc(C)c1 [2-(N-Ethyl-m-toluidino)ethanol] | > 90
55 | CC1=C(CC(=O)O)c2cc(F)ccc2/C1=C\c1ccc([S+](C)[O-])cc1 (stereo not shown) [Sulindac] | > 90
56 | CN=C(N)NC(=O)Nc1c(C)cccc1C [Lidamidine] | > 50
57 | CC(C)CCCC(C)(C)O [2,6-Dimethyl-2-heptanol] | > 90
58 | Cc1cc(Cc2ccc(N)c(C)c2)ccc1N [4,4'-Diamino-3,3'-dimethyldiphenylmethane] | > 90
59 | Nc1cc(S(=O)(=O)O)ccc1O [2-Amino-1-phenol-4-sulfonic acid] | > 90
60 | CNC[C@H](O)[C@@H](O)[C@H](O)[C@H](O)CO [Meglumine] | > 90
61 | O[C@H]1[C@H](O)[C@@H](O)[C@H](O)[C@@H](O)[C@H]1O [myo-Inositol] | > 90
62 | CCCCO [1-Butanol] | > 90
63 | C[C@]12C=CC(=O)C=C1[C@@H](F)C[C@@H]1[C@@H]2[C@@H](O)C[C@@]2(C)[C@H]1CC[C@]2(O)C(=O)CO [Fluprednisolone] | > 50

Same assay, conditions: rat, gh3-tre-luc cells, AC50 (uM) modified / 1000, Tox21_110001=Tox21_110079; viability, 1 nM T3 present, 24 h

Row | Structure (SMILES) | CC50 at 24 h [µM]
64 | COC(=O)C1=CCCN(C)C1 [Arecoline] | > 50

Same assay, conditions: rat, gh3-tre-luc cells, AC50 (uM) modified / 1000, Tox21_110001=Tox21_112069; viability, 1 nM T3 present, 24 h

Row | Structure (SMILES) | CC50 at 24 h [µM]
65 | CCOP(=O)(OCC)O/C(=C\Cl)c1ccc(Cl)cc1Cl [Chlorfenvinphos] | > 50

Same assay, conditions: rat, gh3-tre-luc cells, AC50 (uM) modified / 1000, Tox21_110001=Tox21_200147; viability, 1 nM T3 present, 24 h

Row | Structure (SMILES) | CC50 at 24 h [µM]
66 | CCC(Cl)CCl (stereo not shown) [1,2-Dichlorobutane] | > 90

Same assay, conditions: rat, gh3-tre-luc cells, AC50 (uM) modified / 1000, Tox21_110001=Tox21_202470; viability, 1 nM T3 present, 24 h

Row | Structure (SMILES) | CC50 at 24 h [µM]
67 | Clc1cc(Cl)c(-c2cc(Cl)c(Cl)cc2Cl)cc1Cl [2,2',4,4',5,5'-Hexachlorobiphenyl] | > 40

Same assay, conditions: rat, gh3-tre-luc cells, AC50 (uM) modified / 1000, Tox21_110001=Tox21_300964; viability, 1 nM T3 present, 24 h

Row | Structure (SMILES) | CC50 at 24 h [µM]
68 | O=C(CCl)NCO [2-Chloro-N-(hydroxymethyl)acetamide] | > 90

Same assay, conditions: rat, gh3-tre-luc cells, AC50 (uM) modified / 1000, Tox21_110001=Tox21_301573; viability, 1 nM T3 present, 24 h

Row | Structure (SMILES) | CC50 at 24 h [µM]
69 | CCOP(=O)(OCC)O/C(=C\Cl)c1ccc(Cl)cc1Cl [Chlorfenvinphos] | > 90

Same assay, conditions: rat, gh3-tre-luc cells, AC50 (uM) modified / 1000, Tox21_110001=Tox21_301905; viability, 1 nM T3 present, 24 h

Row | Structure (SMILES) | CC50 at 24 h [µM]
70 | CCOP(=O)(N=C1SCCS1)OCC [Phosfolan] | > 90
